Earlier results on one substance are cited in patent publication US20170016004A1, “DDX5 AND ASSOCIATED NON-CODING RNAs AND MODULATION OF TH17 EFFECTOR FUNCTION” (priority 2015, published 2017).

In this data set the test system is ileal and colonic SMAD7. Particulars: oral.

Consider mongersen, for which the “treatment of Crohn's Disease” value is “used successfully”.
